# Where a SMILES comes first, the peptide text is derived from it. [ ]: non-standard residue; d: D form. The star is where a group is joined. Sta = CC(C)C[C@H](N)[C@@H](O)CC(=O)O; Isovaleryl = CC(C)CC(=O)*
# Assays:
# human renin = target: T1, human renin (Homo sapiens, UniProt P00797); experiment: human renin inhibition test, in vitro (angiotensin I by radioimmunoassay); type: biochemical; conditions: pH 7.4, 37° C., two hours
# T1 construct: purchased National Institute for Biological Standards, London
# T1 sequence (P00797 67-406): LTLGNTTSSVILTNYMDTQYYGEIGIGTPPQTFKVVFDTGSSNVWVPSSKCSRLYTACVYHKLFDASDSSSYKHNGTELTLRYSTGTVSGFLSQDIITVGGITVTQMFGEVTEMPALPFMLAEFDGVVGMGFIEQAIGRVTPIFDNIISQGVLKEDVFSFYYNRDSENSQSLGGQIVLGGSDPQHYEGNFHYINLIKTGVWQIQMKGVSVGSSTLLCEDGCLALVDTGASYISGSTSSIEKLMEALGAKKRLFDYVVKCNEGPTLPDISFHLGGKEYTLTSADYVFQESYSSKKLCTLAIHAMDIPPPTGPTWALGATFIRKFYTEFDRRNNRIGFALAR
# Description: Compounds of Formula I were evaluated as inhibitors of human renin in an in vitro assay, as follows: This human renin inhibition test has been previously described in detail [Papaioannou et al., Clinical and Experimental Hypertension, A7(9), 1243-1257 (1985)]. Human renin was obtained from the National Institute for Biological Standards, London. An incubation mixture was prepared containing in total volume of 0.25 mL 100 mM Tris-acetate buffer at pH 7.4, 25×10^-6 Goldblatt units of renin, 0.05 mL of plasma from human volunteers taking oral contraceptives,6.0 mM sodium EDTA, 2.4 mM phenylmethyl sulfonyl fluoride, 1.5 mM 8-hydroxyquinoline, 0.4 mg/mL BSA, and 0.024 mg/mL neomycin sulfate. This mixture was incubated for two hours at 37° C. in the presence or absence of renin inhibitors. The produced angiotensin I was determined by radioimmunoassay (New England Nuclear kit). Test compounds to be assayed were solubilized in DMSO and diluted with 100mM Tris-acetate buffer at pH 7.4 containing 0.5 % bovine serum albumin (BSA) to the appropriate concentration. The final concentration of organic solvent in the reaction mixture was less than 1%. Control incubations at 37° C. were used to correct for effects of organic solvent on renin activity.
# Plasma Renin Activity = experiment: Oral Effect of Compounds on Plasma Renin Activity in Sodium Depleted Marmoset; type: in vivo, Common marmosets (Callithrix jacchus); conditions: @ 1 h, 3 mg/kg dose
# Description: The oral activity of compounds of Formula I was determined in vivo in Marmoset monkeys in accordance with the following procedure: Common marmosets (Callithrix jacchus, Charles River) were placed on a modified high protein low sodium diet (Purina, St. Louis, Mo.) for 1 to 2 weeks. On the day of the test an animal was anesthetized with isoflurane and cannulated in the femoral artery and vein for blood pressure monitoring, intravenous saralasin infusion and blood sampling. After allowing the animal to recover from surgery for 2 hr, saralasin was infused at 1 microgram/min for 15 minutes to confirm that the animal's blood pressure was dependent on angiotensin II levels. The marmoset was allowed to stabilize for 30 min after the saralasin infusion. The test compound was administered orally and blood pressure was monitored for 2 hr. Blood samples were taken in K-EDTA for plasma renin activity before, 30 min, and 1 hr after compound administration.
# renin = conditions: cited from earlier work
# pepsin = conditions: cited from earlier work
# cathepsin D = conditions: cited from earlier work
# hog renin = conditions: after injection of hog renin into nephrectomized rats; cited from earlier work
SMILES,IC50 (human renin),% Reduction of Plasma Renin Activity (Plasma Renin Activity),also measured
"COCCN(C)C(=O)O[C@@H](Cc1ccccc1)C(=O)N[C@@H](Cc1cnc[nH]1)C(=O)N[C@@H](CC1CCCCC1)[C@@H](O)[C@@H](O)CC(C)C [Example 8, O-[N-methyl-N-(2-methoxyethyl)aminocarbonyl]-3-L-phenyllactyl-L-histidineamide of (2S,3R,4S)-2-amino-1-cyclohexyl-3,4-dihydroxy-6-methylheptane]",1.2 nM,99%,
"COCCN(C)C(=O)C[C@@H](CCc1ccccc1)C(=O)NC[C@@H](C)C(=O)N[C@@H](CC1CCCCC1)[C@@H](O)[C@@H](O)CC(C)C [Example 16, 3-(N-methyl-N-(2-methoxyethyl)aminocarbonyl)-2-(R)-2-phenethylpropionyl-α-(R)-methyl-β-alanineamide of (2S,3R,4S)-2-amino-1-cyclohexyl-3,4-dihydroxy-6-methylheptane]",45 nM,,
"CC[C@H](CNC(=O)[C@H](CCc1ccccc1)CC(=O)N(C)CCOC)C(=O)N[C@@H](CC1CCCCC1)[C@@H](O)[C@@H](O)CC(C)C [Example 15, 3-(N-methyl-N-(2-methoxyethyl)aminocarbonyl)-2-(R)-(2-phenylethyl)propionyl-α-(R)-ethyl-β-alanineamide of (2S,3R,4S)-2-amino-1-cyclohexyl-3,4-dihydroxy-6-methylheptane]",,,inhibition at 0.05 µM (human renin; @ 5 × 10^-8 M): 17%
CC(C)CC(=O)N[C@H](C(=O)N[C@H](C(=O)N[C@@H](CC(C)C)[C@@H](O)CC(=O)N[C@@H](C)C(=O)N[C@@H](CC(C)C)[C@@H](O)CC(=O)O)C(C)C)C(C)C [pepstatin] (Isovaleryl-VV[Sta]A[Sta]-OH),,,"inhibition of renin (in words) (renin): inhibitor of aspartyl proteases such as pepsin, cathepsin D and renin; inhibition of pepsin (in words) (pepsin): inhibitor of aspartyl proteases such as pepsin; inhibition of cathepsin D (in words) (cathepsin D): inhibitor of aspartyl proteases such as pepsin, cathepsin D; reduction of blood pressure in vivo (hog renin): found to reduce blood pressure in vivo"

# Second part, led by results:
IC50 (human renin),SMILES,% Reduction of Plasma Renin Activity (Plasma Renin Activity),also measured
62 nM,"COCCN(C)C(=O)O[C@@H](Cc1ccccc1)C(=O)NC[C@@H](C)C(=O)N[C@@H](CC1CCCCC1)[C@@H](O)[C@@H](O)CC(C)C [Example 13, O-(N-methyl-N-(2-methoxyethyl)aminocarbonyl)-3-L-phenyllactyl-α-(R)-methyl-β-alanineamide of (2S,3R,4S)-2-amino-1-cyclohexyl-3,4-dihydroxy-6-methylheptane]",,
10 nM,"COCCN(C)C(=O)O[C@@H](Cc1ccccc1)C(=O)N[C@@H](CC(C)C)C(=O)N[C@@H](CC1CCCCC1)[C@@H](O)[C@@H](O)CC(C)C [Example 9, O-(N-methyl-N-(2-methoxyethyl)aminocarbonyl)-3-L-phenyllactyl-L-leucineamide of (2S,3R,4S)-2-amino-1-cyclohexyl-3,4-dihydroxy-6-methylheptane]",79%,

# Reference: patent US5229420A, “Ethereal N-terminal aminodiol amino acid derivatives as anti-hypertensive agents” (G. D. Searle & Co., priority 1991, dated 1993)
